Laboratory results published in patent publication US11261190B2, “Dihydropyrimidine compounds and uses thereof in medicine” (SUNSHINE LAKE PHARMA CO., LTD., priority 2017, dated 2022).
Where two headings read alike, the source gives them in different places.

Key:
PK test on SD rats = format: in vivo; details: for AUC(0-inf) / AUC(0-t) / Tmax: male, rat, plasma
Experimental: The PK test method of the compound in vivo of SD rats (purchased from Hunan slack Jing Da laboratory animal Co., Ltd, weight: […] male, ages of 2-3 months, 3 per oral group, 3 per intravenous injection group):
The Rats were administered intragastrically with the test compound at doses of 2.5 mg/kg or 5 mg/kg or administered intravenously with the test compound at doses of 1 mg/kg.
Blood samples were taken at 0.083, 0.25, 0.5, 1, 2, 5, 7 and 24 hours from vein after the administration, and collected in anticoagulation tube with EDTA-K2. The test compounds were extracted from plasma samples by liquid-liquid extraction. Then quantitative analysis was performed on a triple-quadrupole tandem mass spectrometer using multiple reaction monitoring (MRM). Pharmacokinetic parameters were calculated using a noncompartmental method by WinNonLin 6.3 software.

[1] = Cytotoxicity in HepG2.2.15 cells (CellTiter Glo); format: cell-based; details: human, highest concentration 150 μM
Procedure, shortened: (§1)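 Serially diluted compound added to HepG2.2.15 cells (3000/well), top final concentration 150 μM; cultured 4 days at 37° C. Viability read by CellTiter Glo luminescence, cytotoxicity % relative to DMSO control wells, CC50 from four-parameter nonlinear regression.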

HBV [2] = assay: Anti HBV activity in vitro, viral DNA from HepG2.2.15 cells quantified by qPCR; format: cell-based; details: qPCR of viral DNA in supernatant, read-out: EC50 against HBV replication
Procedure, shortened: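 HepG2.2.15 cells, grown 3 days to confluence, treated with 8-point 4-fold dilutions (top final 4 μM, 0.5% DMSO). Secreted HBV DNA in supernatant quantified by SYBR qPCR against plasmid standard curve; EC50 from four-parameter nonlinear regression of concentration vs viral copy number.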

HepG2.2.15 cells = assay: Cytotoxicity in HepG2.2.15 cells (CellTiter Glo); format: cell-based; details: 4 days, highest concentration 150 μM
Procedure, shortened: as §1

HBV [3] = details: Science, 2003, 299, 893-896; cited from earlier work

Which AUC(0-inf) (PK test on SD rats; iv, 1 mg/kg) does the source give for `COC(=O)C1=C(CN2CCN3C(=O)N(c4ccc(C(C)CC(=O)O)cc4)C[C@@H]3C2)NC(c2nccs2)=N[C@H]1c1ccc(F)cc1Cl` (stereo partly drawn) [Example 19, 3-(4-((S)-7-(((R)-6-(2-chloro-4-fluorophenyl)-5-(methoxycarbonyl)-2-(thiazol-2-yl)-3,6-dihydropyrimidin-4-yl)methyl)-3-oxohexahydroimidazo[1,5-a]pyrazin-2(3H)-yl)phenyl) butanoic Acid] here?
Its AUC(0-inf) is 5520 ng·h/mL.

What about the AUC(0-t) (PK test on SD rats; iv, 1 mg/kg) of the same compound?
Its AUC(0-t) is 5520 ng·h/mL.

And the Tmax (PK test on SD rats; iv, 1 mg/kg)?
The Tmax was 4.98 min.

And the AUC(0-inf) (PK test on SD rats; po, 5 mg/kg)?
Its AUC(0-inf) is 20300 ng·h/mL.

What about the AUC(0-t) (PK test on SD rats; po, 5 mg/kg) of the same compound?
Its AUC(0-t) is 20300 ng·h/mL.

What about the Tmax (PK test on SD rats; po, 5 mg/kg) of the same compound?
The Tmax was 30 min.

What about the F (PK test on SD rats; po, 5 mg/kg) of the same compound?
The F was 73.4%.

What about the CC50 at 4 days [1] of the same compound?
The CC50 at 4 days was greater than 150 µM.

What about the EC50 (HBV [2]; Hepatitis B virus) of the same compound?
Its EC50 is 0.003 µM.

Which results are given for `CCOC(=O)C1=C(CN2CCN3C(=O)N(c4nc(CCC(=O)O)cs4)C[C@@H]3C2)NC(c2nccs2)=N[C@H]1c1ccc(F)cc1Br` [Example 30]?
CC50 (HepG2.2.15 cells): 133 µM; EC50 (HBV [2]): 0.012 µM

Which IC50 (HBV [3]) does the source give for `Nc1ccn([C@@H]2CS[C@H](CO)O2)c(=O)n1` [lamivudine] here?
Its IC50 is 0.3 µM.
